# Measured values published in US20170246468A1, “METHODS AND SYSTEMS FOR CONTROLLING OR TUNING THE ELECTRIC FIELD GENERATED IN SKIN OR TISSUE DURING COLD PLASMA SKIN TREATMENTS” (EP Technologies LLC, priority 2016, published 2017).
# Experiments:
# [1] = transport through open pores in the SC of a plasma treated area; details: applied more than 5 minutes after plasma treatment
# [2] = plasmaporation-enhanced transdermal delivery across ex vivo porcine skin; assay type: in vitro ADME
# Excerpt: 27, 2013 and Sep. 29, 2013 incorporated herein. Others devices and techniques are described in U.S. Non-Provisional application Ser. No. 14/564,717 filed on Dec. 9, 2014, U.S. Non-Provisional application Ser. No. 14/610,467 filed on Jan. 30, 2015, and U.S. Non-Provisional application Ser. No. 14/967,512 filed on Dec. 14, 2015. All of these applications are incorporated by reference herein in their entirety.
transport through the SC when applied after 5 minutes [1],time of transdermal delivery of topically applied molecules across skin with plasmaporation ([2]; topically applied),Substance,skin damage [2]
no longer passed through the SC,,Dextran [10 kDa Dextran],
,≤ 15 min,dextran,without creating skin damage
